Consider 16 compounds from patent US20230286958A1, “PLASMA KALLIKREIN INHIBITORS” (Merck Sharp & Dohme LLC, priority 2020, published 2023).

The term IC50 denotes the concentration that inhibits the measured activity by half. A lower IC50 goes with higher potency.

Assay [1] concerns the target human Factor XIa (Homo sapiens (Human), UniProt P03951). As to the kind of experiment: Factor XIa Assay (fluorogenic substrate GPR-AFC). The conditions noted are these: Factor XIa (FXIa). The class given is biochemical. On the procedure: (§1) The effectiveness of a compound of the present invention as an inhibitor of Coagulation Factor XIa can be determined using a relevant purified serine protease, and an appropriate synthetic substrate. The rate of hydrolysis of the chromogenic or fluorogenic substrate by the relevant serine protease was measured both in the absence and presence of compounds of the present invention. Assays were conducted at room temperature or at 37° C. […] A decrease in the rate of fluorescence change in the presence of inhibitor is indicative of enzyme inhibition. Such methods are known to one skilled in the art. The results of this assay are expressed as the half-maximal inhibitory concentrations (IC50), or the inhibitory constant, Ki.
Compounds were pre-incubated for 30 minutes at 25° C. with human (0.04 nM) Factor XIa in 50 mM HEPES buffer with 150 mM sodium chloride, 5 mM calcium chloride, 0.1% PEG 8000, pH 7.4. […] The % inhibition for each data point was calculated from the data and analyzed using the log (inhibitor) vs. response four parameters equation to determine the half-maximal inhibitory concentrations (IC50). The IC50 were converted to equilibrium inhibitory constants (Ki) using the Cheng-Prusoff equation.

In assay [2] the target is Human plasma kallikrein (Homo sapiens (Human), UniProt P03952). As to the kind of experiment: Kallikrein Assay (fluorogenic substrate Acetyl-K-P-R-AFC). It is filed as biochemical. The following applies: Plasma Kallikrein (PKal). The method, then:
as §1, with “Kallikrein” for “Coagulation Factor XIa”
Kallikrein determinations were made in 50 mM HEPES buffer at pH 7.4 containing 150 mM NaCl, 5 mM CaC12, and 0.1% PEG 8000 (polyethylene glycol; Fisher Scientific). Determinations were made using purified Human plasma kallikrein at a final concentration of 0.5 nM (Enzyme Research Laboratories) and the synthetic substrate, Acetyl-K-P-R-AFC (Sigma # C6608) at a concentration of […].
Times required to achieve equilibration between enzyme and inhibitor were determined in control experiments. […] IC50 was determined by inflection point from a four parameter logistic curve fit. Ki was calculated using the Cheng Prusoff equation, Ki = IC50/(1+([S]/Km)).

Sequence of human Factor XIa (P03951 388-625 limits assumed): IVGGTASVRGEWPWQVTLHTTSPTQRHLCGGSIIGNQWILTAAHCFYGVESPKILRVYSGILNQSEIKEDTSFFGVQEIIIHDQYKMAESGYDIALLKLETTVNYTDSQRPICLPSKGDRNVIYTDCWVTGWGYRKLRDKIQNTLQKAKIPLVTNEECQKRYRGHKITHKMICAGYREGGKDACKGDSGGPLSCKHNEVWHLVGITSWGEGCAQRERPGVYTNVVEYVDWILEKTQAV
Sequence of human Factor XIa (P03951 19-387 partner limits assumed): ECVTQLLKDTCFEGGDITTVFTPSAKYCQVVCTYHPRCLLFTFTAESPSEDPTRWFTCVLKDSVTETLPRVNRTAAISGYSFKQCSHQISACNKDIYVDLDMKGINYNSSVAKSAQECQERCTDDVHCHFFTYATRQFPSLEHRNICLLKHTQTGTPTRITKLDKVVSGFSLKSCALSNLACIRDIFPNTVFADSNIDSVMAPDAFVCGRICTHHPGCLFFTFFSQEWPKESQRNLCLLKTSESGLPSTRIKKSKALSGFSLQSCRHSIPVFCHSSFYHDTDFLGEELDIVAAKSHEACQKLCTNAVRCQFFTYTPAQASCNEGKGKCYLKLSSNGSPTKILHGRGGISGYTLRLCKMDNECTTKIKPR
Sequence of Human plasma kallikrein (P03952 391-638): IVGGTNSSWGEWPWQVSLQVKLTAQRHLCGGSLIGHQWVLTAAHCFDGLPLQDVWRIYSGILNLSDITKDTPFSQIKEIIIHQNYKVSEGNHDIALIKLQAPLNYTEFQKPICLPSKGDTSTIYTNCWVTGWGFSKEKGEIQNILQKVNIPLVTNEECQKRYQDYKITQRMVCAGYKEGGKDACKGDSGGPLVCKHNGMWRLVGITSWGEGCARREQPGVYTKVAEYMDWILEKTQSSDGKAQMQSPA
Sequence of Human plasma kallikrein (P03952 20-390 partner): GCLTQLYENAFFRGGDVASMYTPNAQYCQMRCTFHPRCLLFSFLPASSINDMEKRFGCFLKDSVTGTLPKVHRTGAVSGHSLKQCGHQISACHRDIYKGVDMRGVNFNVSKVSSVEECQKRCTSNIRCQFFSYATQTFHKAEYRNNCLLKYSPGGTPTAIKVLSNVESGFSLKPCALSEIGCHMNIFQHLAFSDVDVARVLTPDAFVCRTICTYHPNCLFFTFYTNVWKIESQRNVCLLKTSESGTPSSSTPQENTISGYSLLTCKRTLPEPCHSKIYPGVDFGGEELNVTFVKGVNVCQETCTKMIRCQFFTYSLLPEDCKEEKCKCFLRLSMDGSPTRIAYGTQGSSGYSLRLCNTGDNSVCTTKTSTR

As for “6-(3-Chloro-2-fluoro-6-(methylsulfonyl)phenyl)-N-(1-((S or R)-1-(4-methyl-2-((1R,SS)-2-oxo-3-azabicyclo[3.1.0]hexan-3-yl)pyrimidin-5-yl)ethyl)- 1H-pyrazol-4-yl)pyrazine-2-carboxamide [Example 86]”, the 50% inhibitory concentration (IC50) in assay [1] is > 10 µM; in assay [2], 0.036 µM. The like results for `CC(c1cnc(N2Cc3cccnc3C2=O)nc1)n1cc(NC(=O)c2cncc(-c3c(C(F)F)ccc(Cl)c3F)n2)cn1` (racemic) [Example 26, (S and R)-6-(3-Chloro-6-(difluoromethyl)-2-fluorophenyl)-N-(1-(1-(2-(7-oxo-5,7-dihydro-6H-pyrrolo[3,4-b]pyridin-6-yl)pyrimidin-5-yl)ethyl)-1H-pyrazol-4-yl)pyrazine-2-carboxamide] were, in that order, > 10 µM and 0.0062 µM. The like results for `CC(c1cnc(N2Cc3ncccc3C2=O)nc1)n1cc(NC(=O)c2cncc(-c3c(C(F)F)ccc(Cl)c3F)n2)cn1` (racemic) [Example 27, (S and R)-6-(3-Chloro-6-(difluoromethyl)-2-fluorophenyl)-N(1-(1-(2-(5-oxo-5,7-dihydro-6H-pyrrolo[3,4-b]pyridin-6-yl)pyrimidin-5-yl)ethyl)-1H-pyrazol-4-yl)pyrazine-2-carboxamide] were, in that order, 5.65 µM and 0.0148 µM. The like results for `CC(c1cnc(N2CCN(C)C2=O)nc1)n1cc(NC(=O)c2cncc(-c3c(C(F)F)ccc(Cl)c3F)n2)cn1` (racemic) [Example 28, (S and R)-6-(3-Chloro-6-(difluoromethyl)-2-fluorophenyl)-N-(1-(1-(2-(3-methyl-2-oxoimidazolidin-1-yl)pyrimidin-5-yl)ethyl)-1H-pyrazol-4-yl)pyrazine-2-carboxamide] were, in that order, > 10 µM and 0.0474 µM. Take `CC(c1ccc(N2C[C@H]3C[C@H]3C2=O)cc1)n1cc(NC(=O)c2cncc(-c3c(C(F)F)ccc(Cl)c3F)n2)cn1` (mixture of isomers) [Example 69, 6-(3-Chloro-6-(difluoromethyl)-2-fluorophenyl)-N-(1-((S and R)-1-(4-((1R,5S)-2-oxo-3-azabicyclo[3.1.0]hexan-3-yl)phenyl)ethyl)-1H-pyrazol-4-yl)pyrazine-2-carboxamide]: the IC50 in assay [1] is > 10 µM; in assay [2], 0.01 µM. Turning to `Cc1ncc(-c2c(C(F)F)ccc(Cl)c2F)nc1C(=O)Nc1cnn(C(C)c2cnc(N3C[C@H]4C[C@H]4C3=O)c(NC(=O)OC(C)(C)C)c2)c1` (mixture of isomers) [Example 96, tert-Butyl (5-((S and R)-1-(4-(6-(3-chloro-6-(difluoromethyl)-2-fluorophenyl)-3-methylpyrazine-2-carboxamido)-1H-pyrazol-1-yl)ethyl)-2-((1R,5S)-2-oxo-3-azabicyclo[3.1.0]hexan-3-yl)pyridin-3-yl)carbamate], the IC50 in assay [1] amounted to 3.95 µM; in assay [2], 0.0108 µM.

For `Cc1nc(C(C)n2cc(NC(=O)c3nc(-c4c(C(F)F)ccc(Cl)c4F)cnc3COC(C)(C)C)cn2)cnc1N1C[C@H]2C[C@H]2C1=O` (mixture of isomers) [Example 196, 3-(tert-Butoxymethyl)-6-(3-chloro-6-(difluoromethyl)-2-fluorophenyl)-N-(1-((S and R)-1-(6-methyl-5-((1R,5S)-2-oxo-3-azabicyclo[3.1.0]hexan-3-yl)pyrazin-2-yl)ethyl)-1H-pyrazol-4-yl)pyrazine-2-carboxamide], the 50% inhibitory concentration (IC50) in assay [1] came out at 2.09 µM; in assay [2], 0.0009 µM. The like results for `CCc1ncc(-c2c(C(F)F)ccc(Cl)c2F)nc1C(=O)Nc1cnn(C(C)c2cnc(N3C[C@H]4C[C@H]4C3=O)c(C)c2)c1` (mixture of isomers) [Example 214, 6-(3-Chloro-6-(difluoromethyl)-2-fluorophenyl)-3-ethyl-N-(1-((S and R)-1-(5-methyl-6-((1R,5S)-2-oxo-3-azabicyclo[3.1.0]hexan-3-yl)pyridin-3-yl)ethyl)-1H-pyrazol-4-yl)pyrazine-2-carboxamide] were, in that order, 0.944 µM and 0.0012 µM.

As to `Cc1cc(C(C)n2cc(NC(=O)c3nc(-c4c(OC(F)F)ccc(Cl)c4F)cnc3COC(C)(C)C)cn2)cnc1N1C[C@H]2C[C@H]2C1=O` (mixture of isomers) [Example 228, 3-(tert-Butoxymethyl)-6-(3-chloro-6-(difluoromethoxy)-2-fluorophenyl)-N-(1-((R and S)-1-(5-methyl-6-((1R,5S)-2-oxo-3-azabicyclo[3.1.0]hexan-3-yl)pyridin-3-yl)ethyl)-1H-pyrazol-4-yl)pyrazine-2-carboxamide], the values for the IC50 in assay [1] and in assay [2] were 0.602 µM and 0.0016 µM, respectively. For the compound `Cc1nc(C(C)n2cc(NC(=O)c3cncc(-c4c(C(F)F)ccc(Cl)c4F)n3)cn2)ncc1N1C[C@H]2C[C@H]2C1=O` (single isomer, unassigned) [Example 3, 6-(3-Chloro-6-(difluoromethyl)-2-fluorophenyl)-N-(1-((S or R)-1-(4-methyl-5-((1R,5S)-2-oxo-3-azabicyclo[3.1.0]hexan-3-yl)pyrimidin-2-yl)ethyl)-1H-pyrazol-4-yl)pyrazine-2-carboxamide], the results for the half-inhibitory concentration (IC50) in assay [1] and in assay [2] were > 10 µM and 0.001 µM, respectively. The like results for `Cc1nc(C(C)n2cc(NC(=O)c3cncc(-c4c(C(F)F)ccc(Cl)c4F)n3)cn2)ncc1N1C[C@H]2C[C@H]2C1=O` (single isomer, unassigned) [Example 4, 6-(3-Chloro-6-(difluoromethyl)-2-fluorophenyl)-N-(1-((R or S)-1-(4-methyl-5-((1R,5S)-2-oxo-3-azabicyclo[3.1.0]hexan-3-yl)pyrimidin-2-yl)ethyl)-1H-pyrazol-4-yl)pyrazine-2-carboxamide] were, in that order, > 10 µM and 0.0168 µM.

Turning to `CC(c1ncc(N2C[C@H]3C[C@H]3C2=O)cn1)n1cc(NC(=O)c2cncc(-c3c(C(F)F)ccc(Cl)c3F)n2)cn1` (single isomer, unassigned) [Example 5, 6-(3-Chloro-6-(difluoromethyl)-2-fluorophenyl)-N-(1-((S or R)-1-(5-((1R,5S)-2-oxo-3-azabicyclo[3.1.0]hexan-3-yl)pyrimidin-2-yl)ethyl)-1H-pyrazol-4-yl)pyrazine-2-carboxamide], the IC50 in assay [1] was > 10 µM; in assay [2], 0.0172 µM. For `Cc1ncc(-c2c(C(F)F)ccc(Cl)c2F)nc1C(=O)Nc1cnn(C(C)c2ncc(N3C[C@H]4C[C@H]4C3=O)cn2)c1` (single isomer, unassigned) [Example 6, 6-(3-Chloro-6-(difluoromethyl)-2-fluorophenyl)-3-methyl-N-(1-((R or S)-1-(5-((1R,5S)-2-oxo-3-azabicyclo[3.1.0]hexan-3-yl)pyrimidin-2-yl)ethyl)-1H-pyrazol-4-yl)pyrazine-2-carboxamide], in that order: > 10 µM and 0.0009 µM. `CC(c1ccc(N2CC3CC3C2=O)nc1)n1cc(NC(=O)c2cncc(-c3c(C(F)F)ccc(Cl)c3F)n2)cn1` (single isomer, unassigned) [Example 10, 6-(3-Chloro-6-(difluoromethyl)-2-fluorophenyl)-N-(1-((S or R)-1-(6-((1R,5S or 1S,5R)-2-oxo-3-azabicyclo[3.1.0]hexan-3-yl)pyridin-3-yl)ethyl)-1H-pyrazol-4-yl)pyrazine-2-carboxamide]: the IC50 is > 10 µM in assay [1] and 0.0168 µM in assay [2]. Compound `Cc1cc(C(C)n2cc(NC(=O)c3nc(-c4c(C(F)F)ccc(Cl)c4F)cnc3CO)cn2)cnc1N1C[C@H]2C[C@H]2C1=O` (single isomer, unassigned) [Example 199, 6-(3-Chloro-6-(difluoromethyl)-2-fluorophenyl)-3-(hydroxymethyl)-N-(1-((S or R)-1-(5-methyl-6-((1R,5S)-2-oxo-3-azabicyclo[3.1.0]hexan-3-yl)pyridin-3-yl)ethyl)-1H-pyrazol-4-yl)pyrazine-2-carboxamide] came in with an IC50 in assay [2] of 0.0002 µM. With `Cc1cc(C(C)n2cc(NC(=O)c3nc(-c4c(C(F)F)ccc(Cl)c4F)cnc3CO)cn2)cnc1N1C[C@H]2C[C@H]2C1=O` (single isomer, unassigned) [Example 200, 6-(3-Chloro-6-(difluoromethyl)-2-fluorophenyl)-3-(hydroxymethyl)-N-(1-((R or S)-1-(5-methyl-6-((1R,5S)-2-oxo-3-azabicyclo[3.1.0]hexan-3-yl)pyridin-3-yl)ethyl)-1H-pyrazol-4-yl)pyrazine-2-carboxamide], 0.0002 µM corresponded to half-maximal inhibition in assay [2] (IC50).
